Experimental data taken from patent US12404267B2, “Solid state forms of n-[2-(2-{4-[2-(6,7-dimethoxy-3,4-dihydro-2(1H)-isoquinolinyl)ethyl]phenyl}-2H-tetrazol-5-yl)-4,5-dimethoxyphenyl]-4-oxo-4H-chromene-2-carboxamide and of its mesylate salt” (ASSIA CHEMICAL INDUSTRIES LTD., priority 2019, dated 2025).
Where a name gives a salt, the structure may show the parent alone.

Test: Solubility of solid state forms of Encequidar mesylate
Assay type: physicochemical
Settings: compared with amorphous Encequidar mesylate; no medium or method printed

Structure (SMILES): COc1cc2c(cc1OC)CN(CCc1ccc(-n3nnc(-c4cc(OC)c(OC)cc4NC(=O)c4cc(=O)c5ccccc5o4)n3)cc1)CC2 [Form B of Encequidar mesylate]
- solubility: surprisingly greater than the solubility of amorphous Encequidar mesylate
